Assay results from patent US20250115591A1, “NOVEL SULFONAMIDE CARBOXAMIDE COMPOUNDS” (INFLAZOME LIMITED, priority 2017, published 2025).
Structures can show the parent of a compound that is named as a salt.

Target: NLRP3 (Homo sapiens (Human), UniProt Q96P20)
Experiment: THP-1 cells pyroptosis assay (LPS + nigericin, resazurin read-out)
Assay type: cell-based
Details: 1 μg/ml LPS, 5 μM nigericin
Method: THP-1 cells (ATCC #TIB-202) were grown in RPMI containing L-glutamine (Gibco 15 #11835) supplemented with 1 mM sodium pyruvate (Sigma #S8636) and penicillin (100 units/ml)/streptomycin (0.1 mg/ml) (Sigma #P4333) in 10% Fetal Bovine Serum (FBS) (Sigma #F0804). The cells were routinely passaged and grown to confluency (˜10^6 cells/ml). On the day of the experiment, THP-1 cells were harvested and resuspended into RPMI medium (without FBS). The cells were then counted and viability (>90%) checked by Trypan blue (Sigma #T8154). Appropriate dilutions were made to give a concentration of 625,000 cells/ml. To this diluted cell solution was added LPS (Sigma #[4524) to give a 1 μg/ml Final Assay Concentration (FAC). 40μ of the final preparation was aliquoted into each well of a 96-well plate. The plate thus prepared was used for compound screening.
The following method step-by-step assay was followed for compound screening. • 1. Seed THP-1 cells (25,000 cells/well) containing 1.0 μg/ml LPS in 40μ of RPMI medium (without FBS) in 96-well, black walled, clear bottom cell culture plates coated with poly-D-lysine (VWR #734-0317) • 2. Add 5 μl compound (8 points half-log dilution, with […]) or vehicle (DMSO 0.1% FAC) to the appropriate wells • 3. Incubate for 3 hrs at 37° C. and 5% CO2 • 4. Add 5 μl nigericin (Sigma #N7143) (FAC 5 μM) to all wells • 5. Incubate for 1 hr at 37° C. and 5% CO2 • 6. At the end of the incubation period, spin plates at 300×g for 3 mins and remove supernatant • 7. Then add 50 μl of resazurin (Sigma #R7017) (FAC 100 μM resazurin in RPMI medium without FBS) and incubate plates for a further 1-2 hrs at 37° C. and 5% CO2 • 8. Plates were read in an Envision reader at Ex 560 nm and Em 590 nm • 9. IC50 data is fitted to a non-linear regression equation (log inhibitor vs response-variable slope 4-parameters)

NLRP3, sequence (Q96P20 whole entry): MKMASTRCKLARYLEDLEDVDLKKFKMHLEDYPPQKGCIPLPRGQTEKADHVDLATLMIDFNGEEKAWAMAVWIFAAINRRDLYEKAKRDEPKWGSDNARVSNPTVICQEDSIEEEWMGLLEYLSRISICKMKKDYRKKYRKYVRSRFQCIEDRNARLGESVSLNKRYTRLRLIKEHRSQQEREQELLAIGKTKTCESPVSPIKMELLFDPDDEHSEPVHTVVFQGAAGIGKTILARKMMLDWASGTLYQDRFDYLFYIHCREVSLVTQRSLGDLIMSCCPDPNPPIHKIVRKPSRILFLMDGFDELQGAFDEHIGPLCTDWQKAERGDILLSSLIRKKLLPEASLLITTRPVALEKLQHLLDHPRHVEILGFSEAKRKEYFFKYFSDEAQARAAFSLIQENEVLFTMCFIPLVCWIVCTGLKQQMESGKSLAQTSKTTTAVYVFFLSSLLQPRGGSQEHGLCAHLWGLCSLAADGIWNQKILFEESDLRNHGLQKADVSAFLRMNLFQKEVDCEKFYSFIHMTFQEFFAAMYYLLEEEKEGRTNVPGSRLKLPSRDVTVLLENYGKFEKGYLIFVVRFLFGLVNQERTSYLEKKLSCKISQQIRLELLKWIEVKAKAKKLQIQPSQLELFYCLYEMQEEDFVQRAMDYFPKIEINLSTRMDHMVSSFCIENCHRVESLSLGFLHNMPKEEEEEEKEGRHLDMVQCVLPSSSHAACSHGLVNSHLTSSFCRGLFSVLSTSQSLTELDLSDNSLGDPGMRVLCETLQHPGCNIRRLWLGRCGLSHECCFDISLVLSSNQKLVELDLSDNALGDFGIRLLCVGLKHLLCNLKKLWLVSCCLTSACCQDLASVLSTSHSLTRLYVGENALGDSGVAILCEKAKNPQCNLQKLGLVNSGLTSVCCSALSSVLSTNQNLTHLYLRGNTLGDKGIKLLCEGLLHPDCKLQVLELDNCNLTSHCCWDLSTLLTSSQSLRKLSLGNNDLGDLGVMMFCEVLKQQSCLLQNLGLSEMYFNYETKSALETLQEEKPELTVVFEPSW

Compound | IC50
CCN1CC(S(=O)(=O)NC(=O)Nc2c3c(cc4c2CCC4)CCC3)Cc2ccccc21 (stereo not shown) [Example 66, 1-Ethyl-N-((1,2,3,5,6,7-hexahydro-s-indacen-4-yl)carbamoyl)-1,2,3,4-tetrahydroquinoline-3-sulfonamide, potassium salt] | < 1000 nM
O=C(Nc1c2c(cc3c1CCC3)CCC2)NS(=O)(=O)C1CCN(CC(F)(F)F)CC1 [Example 67, N-((1,2,3,5,6,7-Hexahydro-s-indacen-4-yl)carbamoyl)-1-(2,2,2-trifluoroethyl)piperidine-4-sulfonamide, potassium salt] | 1000 to 10000 nM
CC(C)N1CCC(S(=O)(=O)NC(=O)Nc2c3c(cc4c2CCC4)CCC3)C1=O (stereo not shown) [Example 68, N-((1,2,3,5,6,7-Hexahydro-s-indacen-4-yl)carbamoyl)-1-isopropyl-2-oxopyrrolidine-3-sulfonamide, potassium salt] | < 1000 nM
CCN1CCC(N2CC(S(=O)(=O)NC(=O)Nc3c4c(cc5c3CCC5)CCC4)C2)CC1 [Example 73, 1-(1-Ethylpiperidin-4-yl)-N-((1,2,3,5,6,7-hexahydro-s-indacen-4-yl)carbamoyl)azetidine-3-sulfonamide, potassium salt] | 1000 to 10000 nM
CC(C)(C)OC(=O)N1CC(S(=O)(=O)NC(=O)Nc2c3c(cc4c2CCC4)CCC3)C1 [Example 77, tert-Butyl 3-(N-((1,2,3,5,6,7-hexahydro-s-indacen-4-yl)carbamoyl)sulfamoyl)azetidine-1-carboxylate, potassium salt] | 1000 to 10000 nM
CC(=O)N1CC(N2CCC(S(=O)(=O)NC(=O)Nc3c4c(cc5c3CCC5)CCC4)CC2)C1 [Example 79, 1-(1-Acetylazetidin-3-yl)-N-((1,2,3,5,6,7-hexahydro-s-indacen-4-yl)carbamoyl)piperidine-4-sulfonamide, potassium salt] | 1000 to 10000 nM
CN1CC(N2CCC(S(=O)(=O)NC(=O)Nc3c4c(cc5c3CCC5)CCC4)CC2)C1 [Example 80, N-((1,2,3,5,6,7-Hexahydro-s-indacen-4-yl)carbamoyl)-1-(1-methylazetidin-3-yl)piperidine-4-sulfonamide, potassium salt] | 1000 to 10000 nM
CCC(CC)N1CCC(S(=O)(=O)NC(=O)Nc2c3c(cc4c2CCC4)CCC3)C1 (stereo not shown) [Example 81, N-((1,2,3,5,6,7-Hexahydro-s-indacen-4-yl)carbamoyl)-1-(pentan-3-yl)pyrrolidine-3-sulfonamide, potassium salt] | 1000 to 10000 nM
CC(C)(O)CN1CC(S(=O)(=O)NC(=O)Nc2c3c(cc4c2CCC4)CCC3)C1 [Example 84, N-((1,2,3,5,6,7-Hexahydro-s-indacen-4-yl)carbamoyl)-1-(2-hydroxy-2-methylpropyl)azetidine-3-sulfonamide, potassium salt] | < 1000 nM
O=C(Nc1c2c(cc3c1CCC3)CCC2)NS(=O)(=O)C1CN(C(CF)CF)C1 [Example 86, 1-(1,3-Difluoropropan-2-yl)-N-((1,2,3,5,6,7-hexahydro-s-indacen-4-yl)carbamoyl)azetidine-3-sulfonamide, potassium salt] | 1000 to 10000 nM
COCCN1CC(S(=O)(=O)NC(=O)Nc2c3c(cc4c2CCC4)CCC3)C1 [Example 88, N-((1,2,3,5,6,7-Hexahydro-s-indacen-4-yl)carbamoyl)-1-(2-methoxyethyl)azetidine-3-sulfonamide, potassium salt] | < 1000 nM
O=C(Nc1c2c(cc3c1CCC3)CCC2)NS(=O)(=O)C1CN(CC2CCCCC2)C1 [Example 89, 1-(Cyclohexylmethyl)-N-((1,2,3,5,6,7-hexahydro-s-indacen-4-yl)carbamoyl)azetidine-3-sulfonamide, potassium salt] | 1000 to 10000 nM
CC(=N)N1CC(S(=O)(=O)NC(=O)Nc2c3c(cc4c2CCC4)CCC3)C1 [Example 100, N-((1,2,3,5,6,7-Hexahydro-s-indacen-4-yl)carbamoyl)-1-(1-iminoethyl)azetidine-3-sulfonamide, potassium salt] | 1000 to 10000 nM
